One may read the kcat/Km as the second-order rate constant that governs catalysis at low substrate concentration.

This note sets out measurements from ChEMBL document CHEMBL1144653, “The thioesterase domain from the pimaricin and erythromycin biosynthetic pathways can catalyze hydrolysis of simple thioester substrates” (Bioorg Med Chem Lett, 2007).

Test [1] concerns Streptomyces natalensis. The test can be described thus: Ratio of Kcat to Km in pimaricin thioesterase expressed in Escherichia coli.
Test [2] deals with Saccharopolyspora erythraea. The test can be described thus: Ratio of Kcat to Km in 6-deoxyerythronolide B polyketide synthase thioesterase expressed in Escherichia coli.

For `CC[C@H](O)[C@@H](C)C(=O)SCCNC(C)=O`, the kcat/Km in test [1] was found to be 0.02 M⁻¹ s⁻¹; in test [2], 3.6 M⁻¹ s⁻¹.

Consider `CCCC(C)C(=O)SCCNC(C)=O` (stereo not drawn), for which the kcat/Km in test [1] was 0.24 M⁻¹ s⁻¹; in test [2], 0.17 M⁻¹ s⁻¹.

Consider `CC[C@@H](O)[C@H](C)C(=O)SCCNC(C)=O`, for which the figures for the kcat/Km in test [1] and in test [2] were 0.04 M⁻¹ s⁻¹ and 0.47 M⁻¹ s⁻¹, respectively. As for `CC/C=C(\C)C(=O)SCCNC(C)=O`, the kcat/Km in test [1] was 1.3 M⁻¹ s⁻¹. `CCC(=O)C(C)C(=O)SCCNC(C)=O` (stereo not drawn): the specificity constant (kcat/Km) in test [2] turned out to be 4.2 M⁻¹ s⁻¹.
